In patent publication US20240216344A1, “THIAZOLIDINEDIONE ANALOGS FOR THE TREATMENT OF NAFLD AND METABOLIC DISEASES” (Cirius Therapeutics, Inc., priority 2019, published 2024):

System: patients with NASH
Assay: Meta-analysis of 17 NASH clinical trials: change from baseline in histological components and endpoint counts
Type: in vivo, human
Conditions: EMMINENCE trial
Procedure: Meta-regressions of NASH clinical trials were performed to examine associations between biomarker and histological changes within treatment groups, and to additionally examine associations between treatment effects on biomarkers and on liver histology. Trials that met the following criteria were included: • Randomized controlled clinical trial • Paired biopsies performed at baseline and follow-up, scored using the NASH CRN system.
• Published results at baseline, follow-up, or changes from baseline for any the following liver injury markers or biomarkers: alanine aminotransferase (ALT), aspartate aminotransferase (AST), alkaline phosphatase, hemoglobin A1c (HbA1c), gamma-glutamyltransferase (GGT), insulin, cytokeratin-18 (CK-18), or Enhanced Liver Fibrosis (ELF) score. Variables selected were based on variables whose change was commonly reported in multiple studies. • Changes in histological scores for ballooning, inflammation, steatosis, and fibrosis, or the pre-determined endpoints of NASH resolution without worsening fibrosis or improvement in fibrosis with no worsening of NASH.
All results from a search of PubMed for the keywords (“nonalcoholic steatohepatitis” or “non-alcoholic steatohepatitis”) and (“clinical trial” or “randomized”) and filtered for “Clinical Trial” were reviewed. EudraCT and ClinicalTrials.gov were searched for the keyword “nonalcoholic steatohepatitis” with results further filtered for phase 2 or 3, interventional, terminated or completed trials. These three sources returned 265 (PubMed), 153 (ClinicalTrials.gov), and 56 (EudraCT) results, which were each individually reviewed for inclusion in the analysis. Data extracted by one analyst from each source that included means and SDs at baseline, end of study, and changes from baseline to end of study for continuous variables were verified and corrected by a second analyst. Where SDs were not available, any provided estimate of variation was used to derive the SD where possible; a plot-digitizer program was used where data were presented in figures only. Data for dichotomous endpoints were extracted as the number of subjects with the event and corresponding sample size.
All studies included in the current meta-analysis used the NASH CRN histological scoring system for the scoring of the liver biopsy components. The two dichotomous endpoints considered were based on the currently approvable endpoints per FDA guidelines: NASH resolution without worsening of fibrosis, and fibrosis improvement without worsening of NASH.
Random effects weighted least squares meta-regressions with inverse variance weighting were used to examine the association of changes in ALT, AST, CK-18, HbA1c, fasting insulin levels, ELF, alkaline phosphatase and GGT with biopsy outcomes. CK-18[M30] was measured in all studies except EMMINENCE where CK-18[M651 was reported. These associations were assessed at an individual cohort level (within treatment group), as well as based on the treatment effect. Percent change from baseline in liver injury makers and biomarkers was used as the predictor when examining the associations in the individual cohorts with outcomes while the treatment ratio, the ratio of active to placebo with respect to the relative changes from baseline, was used as the predictor when assessing the association with the treatment effect on outcomes. Standardized mean changes (mean/SD) or standardized mean treatment differences (mean difference/pooled SD) were used for continuous outcomes and Freeman-Tukey double arcsine transformed proportions or log odds ratios were used for dichotomous outcomes. Meta-regression results were computed using the metafor package available in R. P-values <0.05 were considered statistically significant.

**Q.** How did the “Change from Baseline, mean: Ballooning” value (MSDC-0602K 62.5 mg) turn out when `COc1cccc(C(=O)COc2ccc(CC3SC(=O)NC3=O)cc2)c1` (stereo not drawn) [MSDC-0602K] was run?
**A.** Its value is −0.36.

**Q.** What about the “Change from Baseline, mean: Fibrosis” value (MSDC-0602K 62.5 mg) of the same compound?
**A.** The value was 0.06.

**Q.** What about the “Change from Baseline, mean: Inflammation” value (MSDC-0602K 62.5 mg) of the same compound?
**A.** The value was −0.08.

**Q.** What about the “Change from Baseline, mean: Steatosis” value (MSDC-0602K 62.5 mg) of the same compound?
**A.** The value was −0.57.

**Q.** What about the “Fibrosis Improvement” value (MSDC-0602K 62.5 mg) of the same compound?
**A.** The value was 20/99.

**Q.** What about the “NASH Resolution” value (MSDC-0602K 62.5 mg) of the same compound?
**A.** The value was 17/99.

**Q.** And the “Change from Baseline, mean: Ballooning” value (MSDC-0602K 125 mg)?
**A.** The value was −0.42.

**Q.** What about the “Change from Baseline, mean: Fibrosis” value (MSDC-0602K 125 mg) of the same compound?
**A.** The value was −0.12.

**Q.** And the “Change from Baseline, mean: Inflammation” value (MSDC-0602K 125 mg)?
**A.** Its value is −0.22.

**Q.** What about the “Change from Baseline, mean: Steatosis” value (MSDC-0602K 125 mg) of the same compound?
**A.** Its value is −0.51.

**Q.** What about the “Fibrosis Improvement” value (MSDC-0602K 125 mg) of the same compound?
**A.** Its value is 23/98.

**Q.** And the “NASH Resolution” value (MSDC-0602K 125 mg)?
**A.** Its value is 23/98.

**Q.** What about the “Change from Baseline, mean: Ballooning” value (MSDC-0602K 250 mg) of the same compound?
**A.** The value was −0.38.

**Q.** And the “Change from Baseline, mean: Fibrosis” value (MSDC-0602K 250 mg)?
**A.** Its value is −0.06.

**Q.** And the “Change from Baseline, mean: Inflammation” value (MSDC-0602K 250 mg)?
**A.** Its value is −0.12.

**Q.** And the “Change from Baseline, mean: Steatosis” value (MSDC-0602K 250 mg)?
**A.** Its value is −0.67.

**Q.** And the “Fibrosis Improvement” value (MSDC-0602K 250 mg)?
**A.** Its value is 25/101.

**Q.** What about the “NASH Resolution” value (MSDC-0602K 250 mg) of the same compound?
**A.** Its value is 27/101.
